In ChEMBL document CHEMBL5370644, “Subplenones A-J: Dimeric Xanthones with Antibacterial Activity from the Endophytic Fungus Subplenodomus sp. CPCC 401465” (2023):
In brackets after ≈: the same amount, converted by molar mass.

system: Enterococcus faecalis; assay: Antibacterial activity against vancomycin-sensitive Enterococcus faecalis ATCC 29212 assessed as bacterial growth inhibition incubated for 16 to 20 hrs by CLSI based two-fold serial dilution method; assay type: functional; settings: time 16-20 hrs

Q: For `CC1=CC(O)=C2C(=O)c3c(O)ccc(-c4ccc5c(c4O)C(=O)C4=C(O)C=C(C)[C@H](O)[C@]4(C)O5)c3O[C@]2(C)C1=O`, which MIC is on record?
A: The MIC was 4 µg/mL (≈ 7.35 µM).

Q: How did the MIC turn out when `CC1=CC(O)=C2C(=O)c3c(ccc(-c4ccc5c(c4O)C(=O)C4=C(O)C=C(C)[C@H](O)[C@]4(C)O5)c3O)O[C@@]2(C)C1=O` was run?
A: Its MIC is 4 µg/mL (≈ 7.35 µM).

Q: How did the MIC turn out when `CC1=CC(O)=C2C(=O)c3c(ccc(-c4ccc5c(c4O)C(=O)C4=C(O)C=C(C)[C@H](O)[C@]4(C)O5)c3O)O[C@@]2(C)[C@H]1O` was run?
A: Its MIC is 128 µg/mL (≈ 234 µM).

Q: Which MIC does the source give for `CC1=CC(O)=C2C(=O)c3c(ccc(-c4ccc5c(c4O)C(=O)C4=C(O)C=C(C)C(=O)[C@]4(C)O5)c3O)O[C@@]2(C)C1=O` here?
A: The MIC was 4 µg/mL (≈ 7.37 µM).

Q: For `C[C@H]1COc2c(N3CCN(C)CC3)c(F)cc3c(=O)c(C(=O)O)cn1c23` [LEVOFLOXACIN ANHYDROUS], which MIC is on record?
A: Its MIC is 1 µg/mL (≈ 2.77 µM).

Q: Which MIC does the source give for `CC1=C[C@H](O)[C@]2(O)C(=O)c3c(ccc(-c4ccc5c(c4O)C(=O)C4=C(O)C[C@@H](C)[C@H](O)[C@@]4(C)O5)c3O)O[C@@]2(C)[C@H]1O` here?
A: Its MIC is 2 µg/mL (≈ 3.53 µM).

system: Staphylococcus aureus; assay: Antibacterial activity against methicillin-sensitive Staphylococcus aureus ATCC 29213 assessed as bacterial growth inhibition incubated for 16 to 20 hrs by CLSI based two-fold serial dilution method; assay type: functional; settings: time 16-20 hrs

Q: How did the MIC turn out when `CC1=CC(O)=C2C(=O)c3c(O)ccc(-c4ccc5c(c4O)C(=O)C4=C(O)C=C(C)[C@H](O)[C@]4(C)O5)c3O[C@]2(C)C1=O` was run?
A: Its MIC is 1 µg/mL (≈ 1.84 µM).

Q: Which MIC does the source give for `CC1=CC(O)=C2C(=O)c3c(ccc(-c4ccc5c(c4O)C(=O)C4=C(O)C=C(C)[C@H](O)[C@]4(C)O5)c3O)O[C@@]2(C)C1=O` here?
A: The MIC was 1 µg/mL (≈ 1.84 µM).

Q: With `CC1=CC(O)=C2C(=O)c3c(ccc(-c4ccc5c(c4O)C(=O)C4=C(O)C=C(C)[C@H](O)[C@]4(C)O5)c3O)O[C@@]2(C)[C@H]1O` as the molecule, how does the MIC read?
A: The MIC was 2 µg/mL (≈ 3.66 µM).

Q: `CC1=CC(O)=C2C(=O)c3c(ccc(-c4ccc5c(c4O)C(=O)C4=C(O)C=C(C)C(=O)[C@]4(C)O5)c3O)O[C@@]2(C)C1=O` was tested. Which MIC did it give?
A: Its MIC is 1 µg/mL (≈ 1.84 µM).

Q: With `C[C@H]1COc2c(N3CCN(C)CC3)c(F)cc3c(=O)c(C(=O)O)cn1c23` [LEVOFLOXACIN ANHYDROUS] as the molecule, how does the MIC read?
A: The MIC was 0.125 µg/mL (≈ 0.346 µM).

Q: With `CC1=C[C@H](O)[C@]2(O)C(=O)c3c(ccc(-c4ccc5c(c4O)C(=O)C4=C(O)C[C@@H](C)[C@H](O)[C@@]4(C)O5)c3O)O[C@@]2(C)[C@H]1O` as the molecule, how does the MIC read?
A: The MIC was 0.5 µg/mL (≈ 0.883 µM).

system: Staphylococcus epidermidis; assay: Antibacterial activity against methicillin-sensitive Staphylococcus epidermidis ATCC 12228 assessed as bacterial growth inhibition incubated for 16 to 20 hrs by CLSI based two-fold serial dilution method; assay type: functional; settings: time 16-20 hrs

Q: Which MIC does the source give for `CC1=CC(O)=C2C(=O)c3c(O)ccc(-c4ccc5c(c4O)C(=O)C4=C(O)C=C(C)[C@H](O)[C@]4(C)O5)c3O[C@]2(C)C1=O` here?
A: The MIC was 0.25 µg/mL (≈ 0.459 µM).

Q: For `CC1=CC(O)=C2C(=O)c3c(ccc(-c4ccc5c(c4O)C(=O)C4=C(O)C=C(C)[C@H](O)[C@]4(C)O5)c3O)O[C@@]2(C)C1=O`, which MIC is on record?
A: The MIC was no more than 0.125 µg/mL.

Q: Which MIC does the source give for `CC1=CC(O)=C2C(=O)c3c(ccc(-c4ccc5c(c4O)C(=O)C4=C(O)C=C(C)[C@H](O)[C@]4(C)O5)c3O)O[C@@]2(C)[C@H]1O` here?
A: Its MIC is 1 µg/mL (≈ 1.83 µM).

Q: For `CC1=CC(O)=C2C(=O)c3c(ccc(-c4ccc5c(c4O)C(=O)C4=C(O)C=C(C)C(=O)[C@]4(C)O5)c3O)O[C@@]2(C)C1=O`, which MIC is on record?
A: Its MIC is 0.25 µg/mL (≈ 0.461 µM).

Q: How did the MIC turn out when `C[C@H]1COc2c(N3CCN(C)CC3)c(F)cc3c(=O)c(C(=O)O)cn1c23` [LEVOFLOXACIN ANHYDROUS] was run?
A: The MIC was 0.25 µg/mL (≈ 0.692 µM).

Q: Which MIC does the source give for `CC1=C[C@H](O)[C@]2(O)C(=O)c3c(ccc(-c4ccc5c(c4O)C(=O)C4=C(O)C[C@@H](C)[C@H](O)[C@@]4(C)O5)c3O)O[C@@]2(C)[C@H]1O` here?
A: Its MIC is no more than 0.125 µg/mL.

system: Enterococcus faecalis; assay: Antibacterial activity against vancomycin-resistant Enterococcus faecalis ATCC 51299 assessed as bacterial growth inhibition incubated for 16 to 20 hrs by CLSI based two-fold serial dilution method; assay type: functional; settings: time 16-20 hrs

Q: `CC1=CC(O)=C2C(=O)c3c(O)ccc(-c4ccc5c(c4O)C(=O)C4=C(O)C=C(C)[C@H](O)[C@]4(C)O5)c3O[C@]2(C)C1=O` was tested. Which MIC did it give?
A: The MIC was 4 µg/mL (≈ 7.35 µM).

Q: Which MIC does the source give for `CC1=CC(O)=C2C(=O)c3c(ccc(-c4ccc5c(c4O)C(=O)C4=C(O)C=C(C)[C@H](O)[C@]4(C)O5)c3O)O[C@@]2(C)C1=O` here?
A: The MIC was 4 µg/mL (≈ 7.35 µM).

Q: Which MIC does the source give for `CC1=CC(O)=C2C(=O)c3c(ccc(-c4ccc5c(c4O)C(=O)C4=C(O)C=C(C)[C@H](O)[C@]4(C)O5)c3O)O[C@@]2(C)[C@H]1O` here?
A: Its MIC is 128 µg/mL (≈ 234 µM).

Q: Which MIC does the source give for `CC1=CC(O)=C2C(=O)c3c(ccc(-c4ccc5c(c4O)C(=O)C4=C(O)C=C(C)C(=O)[C@]4(C)O5)c3O)O[C@@]2(C)C1=O` here?
A: The MIC was 4 µg/mL (≈ 7.37 µM).

Q: For `C[C@H]1COc2c(N3CCN(C)CC3)c(F)cc3c(=O)c(C(=O)O)cn1c23` [LEVOFLOXACIN ANHYDROUS], which MIC is on record?
A: The MIC was 1 µg/mL (≈ 2.77 µM).

Q: How did the MIC turn out when `CC1=C[C@H](O)[C@]2(O)C(=O)c3c(ccc(-c4ccc5c(c4O)C(=O)C4=C(O)C[C@@H](C)[C@H](O)[C@@]4(C)O5)c3O)O[C@@]2(C)[C@H]1O` was run?
A: The MIC was 4 µg/mL (≈ 7.06 µM).

system: Enterococcus faecium; assay: Antibacterial activity against vancomycin-resistant Enterococcus faecium ATCC 700221 assessed as bacterial growth inhibition incubated for 16 to 20 hrs by CLSI based two-fold serial dilution method; assay type: functional; settings: time 16-20 hrs

Q: Which MIC does the source give for `CC1=CC(O)=C2C(=O)c3c(O)ccc(-c4ccc5c(c4O)C(=O)C4=C(O)C=C(C)[C@H](O)[C@]4(C)O5)c3O[C@]2(C)C1=O` here?
A: The MIC was 1 µg/mL (≈ 1.84 µM).

Q: With `CC1=CC(O)=C2C(=O)c3c(ccc(-c4ccc5c(c4O)C(=O)C4=C(O)C=C(C)[C@H](O)[C@]4(C)O5)c3O)O[C@@]2(C)C1=O` as the molecule, how does the MIC read?
A: The MIC was 2 µg/mL (≈ 3.67 µM).

Q: With `CC1=CC(O)=C2C(=O)c3c(ccc(-c4ccc5c(c4O)C(=O)C4=C(O)C=C(C)[C@H](O)[C@]4(C)O5)c3O)O[C@@]2(C)[C@H]1O` as the molecule, how does the MIC read?
A: The MIC was 16 µg/mL (≈ 29.3 µM).

Q: `CC1=CC(O)=C2C(=O)c3c(ccc(-c4ccc5c(c4O)C(=O)C4=C(O)C=C(C)C(=O)[C@]4(C)O5)c3O)O[C@@]2(C)C1=O` was tested. Which MIC did it give?
A: The MIC was 1 µg/mL (≈ 1.84 µM).

Q: Which MIC does the source give for `C[C@H]1COc2c(N3CCN(C)CC3)c(F)cc3c(=O)c(C(=O)O)cn1c23` [LEVOFLOXACIN ANHYDROUS] here?
A: Its MIC is greater than 64 µg/mL.

Q: `CC1=C[C@H](O)[C@]2(O)C(=O)c3c(ccc(-c4ccc5c(c4O)C(=O)C4=C(O)C[C@@H](C)[C@H](O)[C@@]4(C)O5)c3O)O[C@@]2(C)[C@H]1O` was tested. Which MIC did it give?
A: The MIC was 1 µg/mL (≈ 1.77 µM).

system: Staphylococcus aureus; assay: Antibacterial activity against methicillin-resistant Staphylococcus aureus ATCC 700698 assessed as bacterial growth inhibition incubated for 16 to 20 hrs by CLSI based two-fold serial dilution method; assay type: functional; settings: time 16-20 hrs

Q: With `CC1=CC(O)=C2C(=O)c3c(O)ccc(-c4ccc5c(c4O)C(=O)C4=C(O)C=C(C)[C@H](O)[C@]4(C)O5)c3O[C@]2(C)C1=O` as the molecule, how does the MIC read?
A: Its MIC is 0.5 µg/mL (≈ 0.918 µM).

Q: With `CC1=CC(O)=C2C(=O)c3c(ccc(-c4ccc5c(c4O)C(=O)C4=C(O)C=C(C)[C@H](O)[C@]4(C)O5)c3O)O[C@@]2(C)C1=O` as the molecule, how does the MIC read?
A: Its MIC is 0.5 µg/mL (≈ 0.918 µM).

Q: Which MIC does the source give for `CC1=CC(O)=C2C(=O)c3c(ccc(-c4ccc5c(c4O)C(=O)C4=C(O)C=C(C)[C@H](O)[C@]4(C)O5)c3O)O[C@@]2(C)[C@H]1O` here?
A: Its MIC is 2 µg/mL (≈ 3.66 µM).

Q: With `CC1=CC(O)=C2C(=O)c3c(ccc(-c4ccc5c(c4O)C(=O)C4=C(O)C=C(C)C(=O)[C@]4(C)O5)c3O)O[C@@]2(C)C1=O` as the molecule, how does the MIC read?
A: Its MIC is 0.5 µg/mL (≈ 0.922 µM).

Q: For `C[C@H]1COc2c(N3CCN(C)CC3)c(F)cc3c(=O)c(C(=O)O)cn1c23` [LEVOFLOXACIN ANHYDROUS], which MIC is on record?
A: The MIC was 0.125 µg/mL (≈ 0.346 µM).

Q: `CC1=C[C@H](O)[C@]2(O)C(=O)c3c(ccc(-c4ccc5c(c4O)C(=O)C4=C(O)C[C@@H](C)[C@H](O)[C@@]4(C)O5)c3O)O[C@@]2(C)[C@H]1O` was tested. Which MIC did it give?
A: The MIC was 0.5 µg/mL (≈ 0.883 µM).

system: Staphylococcus aureus; assay: Antibacterial activity against methicillin-resistant Staphylococcus aureus ATCC 43300 assessed as bacterial growth inhibition incubated for 16 to 20 hrs by CLSI based two-fold serial dilution method; assay type: functional; settings: time 16-20 hrs

Q: With `CC1=CC(O)=C2C(=O)c3c(O)ccc(-c4ccc5c(c4O)C(=O)C4=C(O)C=C(C)[C@H](O)[C@]4(C)O5)c3O[C@]2(C)C1=O` as the molecule, how does the MIC read?
A: Its MIC is 1 µg/mL (≈ 1.84 µM).

Q: With `CC1=CC(O)=C2C(=O)c3c(ccc(-c4ccc5c(c4O)C(=O)C4=C(O)C=C(C)[C@H](O)[C@]4(C)O5)c3O)O[C@@]2(C)C1=O` as the molecule, how does the MIC read?
A: Its MIC is 1 µg/mL (≈ 1.84 µM).

Q: Which MIC does the source give for `CC1=CC(O)=C2C(=O)c3c(ccc(-c4ccc5c(c4O)C(=O)C4=C(O)C=C(C)[C@H](O)[C@]4(C)O5)c3O)O[C@@]2(C)[C@H]1O` here?
A: Its MIC is 4 µg/mL (≈ 7.32 µM).

Q: With `CC1=CC(O)=C2C(=O)c3c(ccc(-c4ccc5c(c4O)C(=O)C4=C(O)C=C(C)C(=O)[C@]4(C)O5)c3O)O[C@@]2(C)C1=O` as the molecule, how does the MIC read?
A: Its MIC is 1 µg/mL (≈ 1.84 µM).

Q: How did the MIC turn out when `C[C@H]1COc2c(N3CCN(C)CC3)c(F)cc3c(=O)c(C(=O)O)cn1c23` [LEVOFLOXACIN ANHYDROUS] was run?
A: The MIC was 0.125 µg/mL (≈ 0.346 µM).

Q: How did the MIC turn out when `CC1=C[C@H](O)[C@]2(O)C(=O)c3c(ccc(-c4ccc5c(c4O)C(=O)C4=C(O)C[C@@H](C)[C@H](O)[C@@]4(C)O5)c3O)O[C@@]2(C)[C@H]1O` was run?
A: The MIC was 0.5 µg/mL (≈ 0.883 µM).
